ChEMBL document CHEMBL5614418, “Discovery of novel dihydropyrrolidone-thiadiazole compound crosstalk between the YycG/F two-component regulatory pathway and cell membrane homeostasis to combat methicillin-resistant Staphylococcus aureus” (Eur J Med Chem, 2024)
Activity calls are given as the source filed them. The calls are words filed in the database; no cut-off is given here.

Experiments:
[1] = Toxicity in BALB/c mouse assessed as change in CREA level at 50 mg/kg, ip measured after 1 to 3 days; assay type: organism-based; conditions: in vivo, time 1-3 day
[2] = test system: Staphylococcus epidermidis; assay: Synergistic bactericidal activity against Staphylococcus epidermidis SE1457 assessed as planktonic cells killing by measuring log reduction in bacterial count at 8 times MIC measured after 24 hrs in presence of daptomycin; assay type: functional
[3] = test system: Staphylococcus epidermidis; assay: Inhibition of bacterial growth in Staphylococcus epidermidis SE1457 at MIC concentration measured upto 16 hrs; assay type: functional
[4] = test system: Staphylococcus epidermidis; assay: Antibacterial activity against Staphylococcus epidermidis SE1457 in presence of oleic acid; assay type: functional, organism-based
[5] = test system: Staphylococcus aureus; assay: Downregulation of acetyl-CoA level in methicillin sensitive Staphylococcus aureus SA113 at 1/2 MIC incubated for 30 mins; assay type: functional
[6] = test system: Staphylococcus epidermidis; assay: Antibacterial activity against Staphylococcus epidermidis SE1457 in presence of palmitic acid; assay type: functional, organism-based
[7] = Cytotoxicity against human LX2 cells incubated for 24 hrs by CCK8 assay; assay type: toxicity, cell-based; conditions: LX-2 cells
[8] = test system: Staphylococcus aureus; assay: Antibacterial activity against methicillin sensitive Staphylococcus aureus SA113 assessed as fold increase in MIC in presence of phosphatidyl ethanolamine by chequerboard microdilution assay; assay type: functional

In the case of `O=C(C1=C(O)C(=O)N(c2nnc(SCc3ccccc3Cl)s2)C1c1ccccc1O)c1cc2ccccc2o1` (stereo not drawn), the Activity [1] is reported as “Non-Toxic”, the “log(activity)” value [2] is reported as 4.5 and the “inhibition (INH)” value [3] is reported as 100%. For the same compound, the Activity [4] was “inactive”, the Activity [5] was “Active” and the Activity [6] was “inactive”. For the same compound, the CC50 at 24 h [7] was over 100 µM and the “fold change (FC)” value [8] was 16.
